Reference: patent US11179436B2, “Methods and compositions comprising a C-terminal Bax peptide” (University of Central Florida Research Foundation, Inc., priority 2011, dated 2021)

Columns and labels:
[1] = system: MDA-MB-231 cells; experiment: Cell death by CT20 peptide/nanoparticles and/or CDDP, with Z-VAD-fmk or Bcl-2 overexpression; format: cell-based; details: FIG. 6A; for effect of caspase inhibition with Z-VAD-FMK on cell death: 100 μM Z-VAD-fmk pre-treatment; for cell death / loss of membrane integrity: CT20 peptide/nanoparticles 350 pM; for effect of Bcl-2 overexpression on cell death: transient Bcl-2 transfection
Method: MDA-MB-231 cells were transiently transfected with pcDNA-Bcl2 (or as control pEGFP (Clontech)) using the TransIT-LT1 transfection reagent (Minis). To assess transfection efficiency, cells were assayed microscopically for EGFP expression. To assess Bcl-2 expression, cells lysates were immunoblotted.
Visualization of the uptake and effects of the fluorescent dye (DiI)-loaded nanoparticles in HCT-116, MCF-7, and MDA-MD-231 cells was observed using a 10× air objective with a numerical aperture of 0.3, using ex/em of 514/587. All cells were loaded with MitoTracker. Visualization of the HCT-116 cell lines was observed using Plan-Apochromat 63× Oil objective. MCF-7 and MDA-MB-231 images were captured using Plan-Apochromat 40× Oil objective. All time-lapse images were generated in 2D by capturing 6 time points per hour for 24 hours of the same field.
(§1) HCT-116, MCF-7, or MDA-MB-231 cells were collected at a final concentration of 1×10^6 cells/mL and assayed using the SYTOX® AADvanced™ dead cell stain solution (Invitrogen). Cells were analyzed using the BD FACSCanto flow cytometer. SYTOX® AADvanced™ was visualized at 488 nm and emissions collected at 695 nm. Analysis of data was done using FSC Express software (DeNovo). Membrane asymmetry was assessed using the Violet Ratiometric Membrane Asymmetry Probe/Dead Cell Apoptosis Kit (Invitrogen) according to the manufacturer's protocol.
(§2) To evaluate apoptosis, cells were pre-treated with 100 μM of the pan-caspase inhibitor Z-VAD-fmk (EMD Biosciences) or transiently transfected with Bcl-2, then treated with either CT20/nanoparticles or cisplatin (CDDP) alone or in combination as indicated in figure legends. Following treatment, cells were analyzed for cell death and membrane asymmetry.
Whether the CT20 peptide was able to kill the breast cancer cells, MCF-7 and MDA-MB-231, was examined. […] For each sample, three different fields of view were acquired. Images are representative “snapshots” of three independent experiments Most MCF-7 cells died within 24 hours, while loss of membrane integrity was detected by 3 hours of treatment (FIG. 5B). […] Within three hours, increased membrane rupture was detected in MDA-MB-231 cells treated with COOH-nanoparticles loaded with CT20 peptide (FIG. 5D).
To investigate the mechanism by which the CT20p peptide was inducing cell death, MDA-MB-231 cells were treated with CT20 Bax peptide/nanoparticles (350 pM). A caspase inhibitor (e.g., ZVAD-Fmk and/or CDDP) was added or Bcl-2 was overexpressed. […] The expression of Bcl-2 by transfected cells was confirmed by immunoblotting lysates prepared from cells (FIG. 10).

[2] = system: MDA-MB-231 cells; experiment: Membrane asymmetry with violet ratiometric probe; format: cell-based; details: FIG. 6B
Method: as §1, §2
Therefore, to determine whether the CT20p peptide induced apoptotic cell death, the amount of membrane asymmetry caused by flipping of phospholipids phospholipids in the plasma membrane using a violet ratiometric probe was determined. In FIG. 6B, dot blots show the comparison of loss of membrane integrity to changes in membrane symmetry in MDA-MB-231 cells treated with CT20p peptide and/or CDDP. […] This was minimally affected by caspase inhibition or Bcl-2 expression. […]

[3] = Calcein release from calcein-loaded large unilamellar vesicles; format: biochemical; details: for maximal release of calcein upon treatment with detergent: Triton X-100 after peptide; for maximal release of calcein upon treatment with detergent / release of calcein from mitochondrial-like lipid vesicles: FIG. 1C; for release of calcein from mitochondrial-like lipid vesicles: free peptide
Method: Calcein release from artificial membranes was measured on a JASCO 810 spectropolarimeter (Jasco Inc.) with a Peltier water cooled thermostat and a photomultiplier tube mounted at 90 degrees for fluorescence measurements. Large unilamellar vesicles (LUVs) were prepared with the following modifications: Lipids (Avanti Polar Lipids) in chloroform were mixed in the following molar ratios: 52.5% 1-palmitoyl-2-oleyl-sn-glycero-3-phosphatidylcholine (POPC), 21% 1-palmitoyl-2-oleyl-sn-glycero-3-phosphatidylethanolamine (POPE), 13% bovine liver L-α phosphatidylinositol (PI), 10% cholesterol and 3.5% 1-palmitoyl-2-oleyl-sn-glycero-3-phosphatidylglycerol (POPG). These rations mimicked the outer mitochondrial membrane. After removing chloroform and desiccating, the dried lipid film was resuspended in 50 mM HEPES, pH 7, supplemented with 110 mM NaCl and 80 mM calcein and extruded with Avanti's mini extruder (Alabaster, Ala.). External calcein was removed by gel filtration through a 1.5×50 cm Econo-Column (Bio-Rad) freshly packed with Sephadex 50 (GE Healthcare). CT20 Bax peptides were added at concentrations equivalent to those used with cells in culture. Calcein fluorescence was excited at 495 nm and emission spectra recorded between 510 and 550 nm (excitation/ emission slits: 10/3 nm). Samples were maintained at 37° C. and a final measurement taken at 24 hours. Maximum calcein release was obtained by the addition of Triton ×100 (0.1% final concentration) to calcein loaded LUVs without nanoparticles that had had been incubated at 37° C. for 24 hours after the addition of 10 μL DMSO.
Using a commercially synthesized peptide composed of the last twenty amino acids ([…]) of the C-terminus of Bax (CT20), the ability of CT20p peptideto insert and permeabilize lipid membranes was examined. Liposomes contained phospholipids that composed the mitochondrial outer membrane and were loaded with calcein. […] In FIG. 1C, the red lines indicate maximal release of calcein with Triton X-100. The blue lines indicate treatment with DMSO and the green lines (except for control) indicate treatment with CT20 Bax peptides.
To determine whether the CT20p peptide could directly kill cancer cells, the CT20 wild type peptide was encapsulated in polymeric nanoparticles. As the CT20p peptide is amphipathic, it can be encapsulated within the hydrophobic pockets of aliphatic polymeric nanoparticles. […] To verify that the nanoparticles would not release the CT20 peptide at neutral pH, calcein loaded liposomes were prepared.
In FIG. 9, a calcein release assay was performed with calcein loaded lipid vesicles prepared with the composition of the mitochondrial membrane. Calcein release was measured as fluorescence. Controls were calcein release achieved with CT20p peptide alone and maximum calcein release obtained upon addition of Triton x100. A representative experiment of two independent experiments is shown. This confirmed that cargo is released from nanoparticles only by intracellular esterases or acidic pH (Santra et al., 2010).

[4] = Pore formation in zwitterionic and anionic membranes, kinetics of calcein release and structural studies; format: biochemical; details: calcein transport
From the text: An analysis of formation of relatively large membrane pores by Bax C-terminal 20-reside peptide (CT20p) and two mutants where the two native lysines are replaced either with glutamates (charge reversal mutation) or leucines (charge neutralization mutation) were examined. […] The kinetics of calcein release at various concentrations of the three peptides allowed identification of the second-order rate constants of pore formation within the membrane, the affinity constants of peptide units composing the pore, and the oligomeric pore structure. Nucleation of the pore is shown to be relatively slow and involve 2-3 peptide molecules, followed by a faster process of assembly of the pore that includes up to eight peptide molecules. Structural studies led to a model of an octameric transmembrane pore with an inner diameter of 20-22 A. Analysis of the kinetics of calcein release from lipid vesicles allows determination of rate constants of pore formation, peptide-peptide affinities within the membrane, the oligomeric state of transmembrane pores, and the role of the lysine residues. […]
Additionally, the pore structure was analyzed by polarized Fourier transform infrared, circular dichroism, and fluorescence experiments on the peptides reconstituted in phospholipid membranes. […]

[5] = system: wild type E. coli; experiment: E. coli colony formation after treatment; format: cell-based; details: FIG. 15
Method: This was determined by plating the E. coli after treatment then counting the resulting colonies after 24 hour incubation. […] The bacterial culture media was plated after 24 hours of treatment/exposure to Ct20p or the control conditions, a peptide (SCR) or no peptide and addition of DMSO, and the resulting colonies were counted. […] A conclusion was that the inhibition of growth seen in FIG. 14 was due to the killing or lysing of bacteria.

[6] = system: MDA-MB-231 cells implanted in the flanks of nude mice; experiment: Murine tumor experiment, intratumoral injection, tumor volume by ultrasound; format: in vivo; details: for tumor growth / change in tumor volume: intratumoral injections over a 4-5 day period, versus empty nanoparticles or PBS
Method: One to two million MBA-MD-231 cells were harvested from culture and injected subcutaneously into the right and left flanks of 16 female nude mice (nu/nu, Charles River). After 2-3 weeks, tumor volume and growth was assessed by ultrasound (VisualSonics Vevo 2100). Mice with tumors were injected intratumorally with PBS, unloaded polymeric nanoparticles, or CT20 Bax peptide-loaded polymeric nanoparticles at 4× the concentrations described above. Injections were performed twice over a 4-5 day period. Mice were observed 0-5 days post-treatments and tumor volume assessed by ultrasound.
MDA-MB-231 cells were implanted in the flanks of nude mice. Initial growth of tumors was detected after 2 weeks. At this time tumors were measured, and over a 4-5 day period, the mice were treated with intratumoral injections of PBS, unloaded or empty nanoparticles (NP), or CT20 peptide/nanoparticles.
FIG. 6D provides representative ultrasound image of changes in tumor volume induced by treatment on days 0, 2 and 4 with the unloaded or CT20 peptide loaded nanoparticles. These findings indicate reduced uptake or effectiveness in non-cancerous cells.

[7] = system: wild type E. coli; experiment: E. coli growth in broth by optical density; format: cell-based; details: FIG. 14
Method: Attributes are shared among the peptides. […] The E. coli were grown in the presence of a peptide, concentrations of CT20p peptide or for control, SCR peptide, or no peptide for a control, in standard conditions for growing bacteria in broth media.

| Molecule | effect of caspase inhibition with Z-VAD-FMK on cell death [1] | cell death / loss of membrane integrity [1] | effect of Bcl-2 overexpression on cell death [1] | changes in membrane symmetry [2] | maximal release of calcein upon treatment with detergent [3] | release of calcein from mitochondrial-like lipid vesicles [3] | pore formation in lipid membranes [4] | pore formation in lipid membranes ([4]; listed as wild-type peptide) | nature of effect from colony counts ([5]; 24 hours of treatment) | minimum inhibitory concentration (MiC) ([5]; plated after treatment, colonies counted after 24 hour incubation) [mg] | release of calcein from liposomes ([3]; 350 pM, pH 7, FIG. 9) | tumor growth / change in tumor volume [6] | tumor growth / change in tumor volume ([6]; listed as CT20 peptide) | damage of normal tissue surrounding the tumors ([6]; ultrasound, FIG. 6D) | time at which the growth curve reached a plateau [7] [h] |
| --- | --- | --- | --- | --- | --- | --- | --- | --- | --- | --- | --- | --- | --- | --- | --- |
| [NH2][Pt]([NH2])([Cl])[Cl] [CDDP, cisplatin, reference compound] | inhibited by ZVAD-FMK | induced cell death | impaired death | induced significant alterations in the membrane symmetry | – | – | – | – | – | – | – | – | – | – | – |
| VTIFVAGVLTASLTIWEEMG [CT20-EE] | – | – | – | – | did not occur | did not cause calcein release | – | – | – | – | – | – | – | – | – |
| VTIFVAGVLTASLTIWKKMG [CT20p peptide] | largely unaffected | caused significant loss of membrane integrity | did not impair the death activity | – | impaired the maximal release of calcein | caused the release of calcein | efficient at forming pores | most efficient pores | bactericidal | 25 | did induce the release of calcein | tumor regression | prevented tumor growth | little to no observable damage of normal tissue | 13 |
| VTIFVAGVLTASLTIWLLMG [CT20-LL] | – | – | – | – | impaired the maximal release of calcein | did not cause calcein release | – | – | – | – | – | – | – | – | – |
